Experimental data reported in patent US20120004281A1, “RNA Interference Mediated Inhibition of the Nerve Growth Factor Beta Chain (NGFB) Gene Expression Using Short Interfering Nucleic Acid (siNA)” (Merck Sharp & Dohme Corp, priority 2009, published 2012).
[invAb] = inverted abasic unit; m = 2'-O-methyl; r = 2'-OH (RNA); f = 2'-fluoro

System: NGFβ mRNA
Test: NGFβ mRNA knock-down in Calu-1 cells (RNAiMax transfection, Taqman RT-PCR)
Format: cell-based, human
Conditions: human Calu-1 cells, 10 nM siNA, 24 hrs post-transfection, relative to non-targeting control, normalized to GAPDH
Procedure: Calu-1 (human; ATCC cat# HTB-54): Cells were cultured at 37° C. in the presence of 5% CO2 and grown in McCoy's 5a medium supplemented with fetal bovine serum at a final concentration of 10% and 100 μg/mL of streptomycin and 100 U/mL penicillin.
All transfections were performed using RNAiMax (Invitrogen Cat# 13778-150) as per the manufacturer's instructions.
Cells were plated in all wells of a tissue-culture treated, 96-well plate at a final count of 5,000 cells/well in […], of appropriate culture media. Cells were cultured for 24 hours after plating at 37° C. in the presence of 5% CO2.
After 24 hours, complexes containing siNA and RNAiMax were created as follows: A solution of RNAiMax diluted 33-fold in OPTI-MEM was prepared. In parallel, solutions of the siNAs for testing were prepared to a final concentration of 120 nM in OPTI-MEM. After incubation of RNAiMax/OPTI-MEM solution at room temperature for 5 min, an equal volume of the siRNA solution and the RNAiMax solution were added together for each of the siNAs.
This solution was incubated at room temperature for 20 minutes. After incubation, 20 uL of the solution was added to each of the relevant wells.
The final concentration of siNA in each well was 10 nM and the final volume of RNAiMax in each well was 0.3u1.
The time of incubation with the RNAiMax-siNA complexes was 24 hours, unless otherwise indicated. There was no change in media between the transfection and harvesting of the cells unless otherwise indicated.
Dose response curves were carried out in a similar fashion in 96-well plates, while maintaining a constant amount of RNAiMax in each transfection.
RNA was extracted from a 96-well plate using the TaqMan® Gene Expression Cells-to-CT™ Kit (Cat# 4399002) with a modified protocol. Briefly, a 60 uL (1 plate) or 110 uL (2 plates) of the Lysis Solution with DNase I was dispensed into each well of the Lysis Buffer Plate (twin.tec full skirt plate). The lysis buffer and stop plates were stored at 4° C. until the cells were washed.
The plate was spun at 1100 rpm for 5 minutes. The culture medium was aspirated and discarded from the wells of the culture plate. The lysis was performed automatically using a BioMek FX instrument and method. After the Biomek method was completed, the lysis plate was incubated for 2 min. at room temperature. The lysis plate can be stored for 2 hours at 4° C., or at −20° C. or −80° C. for two months.
Each well of the reverse transcription plate required 10 uL of 2× reverse transcriptase Buffer, luL of 20× reverse transcription enzyme and 2 uL of nuclease-free water. The reverse transcription master mix was prepared by mixing 2× reverse transcription buffer, 20× reverse transcription enzyme mix, and nuclease-free water. 13 uL of the reverse transcription master mix was dispensed into each well of the reverse transcription plate (semi-skirted). A separate reverse transcription plate was prepared for each cell plate. The plate was loaded onto a Biomek NX or Biomek FX Dual-96 and the Biomek method was run. The program is programmed to automatically added 7 uL of lysate from the cell lysis procedure described above into each well of the reverse transcription plate. The plate is sealed and spun on a centrifuge (1000 rpm for 30 seconds) to settle the contents to the bottom of the reverse transcription plate. The plate is placed in a thermocycler at 37° C. for 60 min, 95° C. for 5 min, and 4° C. until the plate is removed from the thermocycler. Upon removal, if not used immediately, the plate was frozen at −20° C.
A series of probes and primers were used to detect the various mRNA transcripts of the genes of NGFβ, BDNF and GAPDH in human cell lines. All the Taqman probes and primers for the experiments here-in described were supplied as pre-validated sets by Applied Biosystems, Inc. (see Table 3). The assays were performed on an ABI 7900 instrument, according to the manufacturer's instructions. […]

Substance	% KD in CaLu-1 Cells [%]
25402-DC: siNA duplex, NGFβ target site 651; sense B GAGAGGuGAAcAuuAAcAA TTB (SEQ ID NO: 29), antisense UUGuuAAuGuucAccucucUU (SEQ ID NO: 30) (sense GAGAGGUGAACAUUAACAATT; antisense UUGUUAAUGUUCACCUCUCUU; sense: DNA at AGT, 2'-fluoro at CU, [invAb] at 5' end, 3' end, backbone not given here; antisense: sugars from the 5' end rrrffmmfmfffmffffffmm, backbone not given here)	53
25403-DC: siNA duplex, NGFβ target site 958; sense B ccuGuAAAuuAuuuuAAAu TTB (SEQ ID NO: 31), antisense AUUuAAAAuAAuuuAcAGGUU (SEQ ID NO: 32) (sense CCUGUAAAUUAUUUUAAAUTT; antisense AUUUAAAAUAAUUUACAGGUU; sense: DNA at AGT, 2'-fluoro at CU, [invAb] at 5' end, 3' end, backbone not given here; antisense: sugars from the 5' end rrrfmmmmfmmfffmfmmmmm, backbone not given here)	60
25404-DC: siNA duplex, NGFβ target site 43; sense B cAGuGGucGuGcAGuccAA TTB (SEQ ID NO: 33), antisense UUGGAcuGcAcGAccAcuGUU (SEQ ID NO: 34) (sense CAGUGGUCGUGCAGUCCAATT; antisense UUGGACUGCACGACCACUGUU; sense: DNA at AGT, 2'-fluoro at CU, [invAb] at 5' end, 3' end, backbone not given here; antisense: sugars from the 5' end rrrmmffmfmfmmffmffmmm, backbone not given here)	33
25405-DC: siNA duplex, NGFβ target site 124; sense B cAAGGGAGcAGcuuucuAu TTB (SEQ ID NO: 35), antisense AUAGAAAGcuGcucccuuGUU (SEQ ID NO: 36) (sense CAAGGGAGCAGCUUUCUAUTT; antisense AUAGAAAGCUGCUCCCUUGUU; sense: DNA at AGT, 2'-fluoro at CU, [invAb] at 5' end, 3' end, backbone not given here; antisense: sugars from the 5' end rrrmmmmmffmfffffffmmm, backbone not given here)	31
25406-DC: siNA duplex, NGFβ target site 755; sense B cAcuGGAAcucAuAuuGuA TTB (SEQ ID NO: 37), antisense UACAAuAuGAGuuccAGuGUU (SEQ ID NO: 38) (sense CACUGGAACUCAUAUUGUATT; antisense UACAAUAUGAGUUCCAGUGUU; sense: DNA at AGT, 2'-fluoro at CU, [invAb] at 5' end, 3' end, backbone not given here; antisense: sugars from the 5' end rrrmmfmfmmmffffmmfmmm, backbone not given here)	34
25407-DC: siNA duplex, NGFβ target site 518; sense B cAcAGGAGcAAGcGGucAu TTB (SEQ ID NO: 39), antisense AUGAccGcuuGcuccuGuGUU (SEQ ID NO: 40) (sense CACAGGAGCAAGCGGUCAUTT; antisense AUGACCGCUUGCUCCUGUGUU; sense: DNA at AGT, 2'-fluoro at CU, [invAb] at 5' end, 3' end, backbone not given here; antisense: sugars from the 5' end rrrmffmfffmfffffmfmmm, backbone not given here)	47
25408-DC: siNA duplex, NGFβ target site 653; sense B GAGGuGAAcAuuAAcAAcA TTB (SEQ ID NO: 41), antisense UGUuGuuAAuGuucAccucUU (SEQ ID NO: 42) (sense GAGGUGAACAUUAACAACATT; antisense UGUUGUUAAUGUUCACCUCUU; sense: DNA at AGT, 2'-fluoro at CU, [invAb] at 5' end, 3' end, backbone not given here; antisense: sugars from the 5' end rrrfmffmmfmfffmffffmm, backbone not given here)	26
25409-DC: siNA duplex, NGFβ target site 468; sense B cucAGGAucuGGAcuucGA TTB (SEQ ID NO: 43), antisense UCGAAGuccAGAuccuGAGUU (SEQ ID NO: 44) (sense CUCAGGAUCUGGACUUCGATT; antisense UCGAAGUCCAGAUCCUGAGUU; sense: DNA at AGT, 2'-fluoro at CU, [invAb] at 5' end, 3' end, backbone not given here; antisense: sugars from the 5' end rrrmmmfffmmmffffmmmmm, backbone not given here)	52
25410-DC: siNA duplex, NGFβ target site 451; sense B ccGuGAAGcuGcAGAcAcu TTB (SEQ ID NO: 45), antisense AGUGucuGcAGcuucAcGGUU (SEQ ID NO: 46) (sense CCGUGAAGCUGCAGACACUTT; antisense AGUGUCUGCAGCUUCACGGUU; sense: DNA at AGT, 2'-fluoro at CU, [invAb] at 5' end, 3' end, backbone not given here; antisense: sugars from the 5' end rrrmfffmfmmffffmfmmmm, backbone not given here)	70
25411-DC: siNA duplex, NGFβ target site 101; sense B uccGGAcccAAuAAcAGuu TTB (SEQ ID NO: 47), antisense AACuGuuAuuGGGuccGGAUU (SEQ ID NO: 48) (sense UCCGGACCCAAUAACAGUUTT; antisense AACUGUUAUUGGGUCCGGAUU; sense: DNA at AGT, 2'-fluoro at CU, [invAb] at 5' end, 3' end, backbone not given here; antisense: sugars from the 5' end rrrfmffmffmmmfffmmmmm, backbone not given here)	54
25412-DC: siNA duplex, NGFβ target site 267; sense B cccAAGcccAcuGGAcuAA TTB (SEQ ID NO: 49), antisense UUAGuccAGuGGGcuuGGGUU (SEQ ID NO: 50) (sense CCCAAGCCCACUGGACUAATT; antisense UUAGUCCAGUGGGCUUGGGUU; sense: DNA at AGT, 2'-fluoro at CU, [invAb] at 5' end, 3' end, backbone not given here; antisense: sugars from the 5' end rrrmfffmmfmmmfffmmmmm, backbone not given here)	−3
25414-DC: siNA duplex, NGFβ target site 615; sense B ccAcAGAcAucAAGGGcAA TTB (SEQ ID NO: 53), antisense UUGcccuuGAuGucuGuGGUU (SEQ ID NO: 54) (sense CCACAGACAUCAAGGGCAATT; antisense UUGCCCUUGAUGUCUGUGGUU; sense: DNA at AGT, 2'-fluoro at CU, [invAb] at 5' end, 3' end, backbone not given here; antisense: sugars from the 5' end rrrfffffmmfmfffmfmmmm, backbone not given here)	61
